Measurements: US20160215267A1, “METHODS FOR GENERATING 3D CELL CULTURE MODEL IN HIGH RESPIRATION ENVIRONMENTS FOR HIGH-CONTENT ANALYSES AND SCREENING” (IKKO-ZU CORPORATION, priority 2015, published 2016)

System: HepG2/C3A
Assay: Drug-induced liver injury (DILI) simulated by adjusting air supply from the well bottom, island-shaped 3Ds on PDMS
Format: cell-based, human
Conditions: 24 h exposure, highest concentration 20 mM
Protocol: Compounds were dissolved at 200 times the highest test concentration in 100% DMSO. […] The final DMSO concentration was set constant and less than 0.4% over the tested dilutions. […] Therefore, serially-diluted compounds were finally diluted in situ at 1/2 and mixed by a gentle rocking motion a few times. […]
Cells grown as island 3Ds in the gas-permeable PDMS membrane were exposed to drug treatments described above. […] The plates were equilibrated to 5% CO2 and 3TC and measured by Opera (PerkinElmer).
For detailed global image acquisition, a 20× objective was used in spinning-disc confocal mode. […] Then the cell area was estimated for selected nuclei in the regions, and TMRM emission intensity in the cell regions was calculated for the selected cells over the 4 designated fields per well. […] For the dose-response and Z′ values, the intensity values were analyzed on a projection image representing the peak intensity values for each of 4 Z-planes projected onto a single image. For the detailed analysis of the entire 3Ds, each Z-plane was individually analyzed.

`CC(=O)Nc1ccc(O)cc1` [Acetaminophen, acetaminophen] was tested, and the “toxicity response (dose response curve)” value (3Ds on PDMS membrane left entirely bare) was “apparently unresponsive” and the “toxicity response (dose response curve)” value (3Ds on PDMS membrane partially-sealed) was “suggesting a DILI effect”.
